Experimental findings from US20110136229A1, “Novel lectin” (National Taiwan University, priority 2009, published 2011) are described below.

In general, IC50 refers to the concentration that gives 50% inhibition. Read a high IC50 as lower potency. Usually MIC stands for the lowest concentration found to suppress growth. Low readings indicate greater potency, high ones weaker potency. Broadly, the Kd is a measure of binding affinity in units of concentration.

The subject of one assay is lectin of Carica papaya. The assay is described as follows: Analysis of sugar-binding specificity (inhibition of lectin-induced hemagglutination by sugars, IC50). Particulars: lowest sugar concentration inhibiting 50% agglutinating activity; peak 1 diluted to HA titer 32. Format: cell-based. How it is done:
The N-acetylgalactosamine, galactose, lactose, mannose, N-acetylglucosamine solutions were respectively added to the same volume of the samples, and the final sugar concentrations of the solutions were 3.1, 6.3, 12.5, 25, 50 and 100 mM, respectively. Upon well mixing, 50 μL of the mixture of the sample and the sugar solution was added to 50 μL of the human type O erythrocyte suspension (2×10^8 cells/mL) in the 96-well plate. Then, the 96-well plate was placed at 37 °C for 30 minutes, and the inhibition of the hemagglutination was observed. IC50 was defined as the lowest sugar concentration capable of inhibiting 50% agglutinating activity, wherein the inhibition area of the agglutination was at least half area of the bottom of the well.
In this embodiment, the fraction of the peak 1 (HA titer being 512) was diluted for 16 folds (HA titer being 32) for the analysis.

The next assay has as its system CPL. The assay is described as follows: Hemagglutination inhibition assay on CPL by various sugars (MIC). The format is cell-based, Carica papaya. Particulars: minimum inhibitory concentration for inhibition of 16 hemagglutination titers, 2% human erythrocytes. The protocol: The HA titer of the purified lectin in the present invention was 512. The purified lectin was diluted to have the HA titer as 16, and then mixed with various sugar solution to test hemagglutination inhibition on CPL by various sugars. The results were illustrated in Table 3, wherein MIC indicated minimum inhibitory concentrations required for inhibition of 16 hemagglutination titers of the lectin of the present invention against 2% human 0-type erythrocytes, and all sugars are of D configuration.

In assay [1] the test system is CPL (Carica papaya lectin), purified lectin from papaya seeds. The assay is described as follows: Interaction between CPL and immobilized GalNAc residues by surface plasmon resonance. The note with it: GalNAc-PAA-biotin polymers immobilized on SA chip, CPL 1.8-30 nM as analyte, Biacore T100. Format: binding. How it is done: (3) Interaction Between CPL and Immobilized GalNAc Residues by Surface Plasmon Resonance
GalNAc-PAA-biotin polymers were immobilized to a sensor chip modified with streptavidin (SA). The regeneration solution for the chip was 50 mM phosphate saline buffer (pH 7.0) containing 200 mM GalNAc. The concentrations of the purified CPL were adjusted to 30, 15, 7.5, 3.7 and 1.8 nM to be analytes, then subjected to the sensor chip immobilized with GalNAc-PAA-biotin polymers, and analyzed by Biacore T100 surface plasmon resonance analyzing machine. The obtained sensorgrams were analyzed and calculated by BIACORE T100 Evaluation software 2.0. After CPL was combined with GalNAc ligand on the sensor chip, the dissociation curve declined gradually. In other words, CPL had great affinity to GalNAc. […] (4) Immunomodulatory Effect of CPL on the Cytotoxicity and Induction of Cytokine Production in Jurkat T Lymphocytes
Background: SPR reads the build-up and loss of mass on a sensor chip optically.

Assay [2] relates to Jurkat T lymphocytes. The format is cell-based, human. Particulars: 1 μg/mL, 24 hours. The protocol: […] After incubation for 24 hours, cell viability was measured by cell proliferation reagent, WST-1 (4-[3-(4-iodophenyl)-2-(4-nitrophenyl)-2H-5-tetrazolio]-1,3-benzene disulfonate), and the cytokine content in the incubation medium was analyzed. […] 24 μg/mL of CPL had inhibition effect on Jurkat T lymphocytes similar to that of 10 μg/mL of SBA, i.e., inhibiting 30% of viability after 24-hour incubation.

Assay [3] concerns Jurkat T lymphocytes. The assay is described as follows: IL-2 cytokine production in Jurkat T lymphocytes. The format is cell-based, human. The note with it: 10 μg/mL, 24 hr. How it is done: The purified CPL was added to respective 1.8 mL of Jurkat T lymphocytes (2×10^6), wherein the final concentrations of CPL were 24, 12, 6 and 3 μg/mL, respectively. After incubation for 24 hours, cell viability was measured by cell proliferation reagent, WST-1 (4-[3-(4-iodophenyl)-2-(4-nitrophenyl)-2H-5-tetrazolio]-1,3-benzene disulfonate), and the cytokine content in the incubation medium was analyzed. […] 24 μg/mL of CPL had inhibition effect on Jurkat T lymphocytes similar to that of 10 μg/mL of SBA, i.e., inhibiting 30% of viability after 24-hour incubation.
In the control group of Jurkat T lymphocyte without lectin added therein, the concentration of IL-2 upon 24 hr incubation was approximately or lower than 10 pg/mL. However, upon incubation with lectin, Jurkat T lymphocytes were induced to secrete IL-2 into the culture medium. The concentrations of IL-2 secreted from Jurkat T lymphocytes incubated with SBA and PHA (10 μg/mL) were 377±1 and 308±7 pg/mL, respectively. After Jurkat T lymphocytes were incubated with various concentrations of CPL for 24 hours, the concentration of IL-2 in the medium was proportional to the concentration of CPL. In the medium added with 3 μg/mL of CPL, the concentration of IL-2 was 9.7 pg/mL, which had no significant difference from the control group. In the medium added with 6 μg/mL of CPL, the concentration of IL-2 was 44.5 pg/mL. […]

≈ marks a conversion by molar mass, not a printed value.

Consider `OC[C@H]1O[C@@H](O[C@H]2[C@H](O)[C@@H](O)C(O)O[C@@H]2CO)[C@H](O)[C@@H](O)[C@H]1O` (stereo partly shown) [Lactose], for which the IC50 in the assay on lectin of Carica papaya worked out at 6.3 mM. The compound further returned an MIC in the assay on CPL of 6.3 mM (≈ 2.16 mg/mL).

Compound `CC(=O)N[C@H]1C(O)O[C@H](CO)[C@H](O)[C@@H]1O` (stereo partly shown) [N-acetylgalactosamine] returned a concentration for half-maximal inhibition (IC50) in the assay with lectin of Carica papaya of 6.3 mM. Further, the minimal inhibitory concentration (MIC) in the assay with CPL was 6.3 mM (≈ 1.39 mg/mL). In addition, in assay [1], the “combination rate (Kon)” value is 5.5×10^4 1/MS and the “dissociation rate (Koff)” value is on record as 3×10^−4 1/S. Besides, in assay [1] (read-out: dissociation constant (Kd)), the Kd was about 5.5 nM.

For the compound “SBA: soybean agglutinin, which specifically binds to GalNAc”, in the assay with Jurkat T lymphocytes [2], the effect on viability entry was “no significant effect”. Also, the “concentration of IL-2 in medium” value in the assay with Jurkat T lymphocytes [3] is 377 ± 1 pg/mL.

Turning to `O=C[C@H](O)[C@@H](O)[C@@H](O)[C@H](O)CO` [Galactose], in the assay on lectin of Carica papaya, the IC50 is over 100 mM. Moreover, the MIC in the assay with CPL is on record as over 100 mM.

For the compound `CC(=O)N[C@H]1C(O)O[C@H](CO)[C@@H](O)[C@@H]1O` (stereo partly shown) [N-acetylglucosamine], in the assay with lectin of Carica papaya, the IC50 is over 100 mM. In addition, the minimum inhibitory concentration (MIC) in the assay on CPL (listed as GlcNAc) is over 100 mM.
